Data reported in PubChem BioAssay (NCI).
Where “and” joins values, the source holds several entries; their conditions need not be identical. Equal entries are not always repeated.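 96-well plates; 48 h exposure; 5 concentrations. Endpoints by linear interpolation between flanking doses. Not reached: highest tested concentration assigned. Abbreviation: GI50, concentration required for 50% inhibition of growth. TGI marks complete inhibition of growth.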

What was measured:
Assay in all cases: NCI anticancer screen, dose series, 48 h
[1] = tested on: KM12 colon
[2] = tested on: M14 melanoma
[3] = tested on: RPMI-8226 leukemia
[4] = tested on: NCI/ADR-RES ovarian
[5] = tested on: SF-295 CNS
[6] = tested on: RXF 393 renal
[7] = tested on: 786-0 renal
[8] = tested on: NCI-H522 lung
[9] = tested on: HS 578T breast
[10] = tested on: BT-549 breast

Compound | TGI [1] | TGI [2] | TGI [3] | TGI [4] | TGI [5] | TGI [6] | TGI [7] | TGI [8] | TGI [9] | TGI [10] | GI50 [1] | GI50 [2] [µM] | GI50 [3] | GI50 [4] | GI50 [5] | GI50 [6] | GI50 [7] [µM] | GI50 [8] [µM] | GI50 [9] [µM] | GI50 [10] [µM]
COC(=O)c1cccc(COc2ccc([N+](=O)[O-])cc2Cl)c1 | > 100 µM | > 100 µM | > 100 µM | > 100 µM | > 100 µM | > 100 µM | > 100 µM | > 100 µM | > 100 µM | > 100 µM | – | – | – | – | – | – | – | – | – | –
Clc1ccc2c(NCCCNCc3ccc4c(c3)OCO4)ccnc2c1 | 15.1 µM | 3.42 µM | 6.16 µM | 18.4 µM | 7.11 µM | 5.07 µM | 12 µM | 8.01 µM | 11.1 µM | 17.7 µM | 3.86 µM | 1.74 | 2.31 µM | 4 µM | 2.34 µM | 1.87 µM | 2.88 | 2.44 | 2.99 | 4.47
Nc1nc(N)c(N=Nc2ccc([As](=O)(O)O)c(O)c2)c(N)n1 | > 100 µM | > 100 µM | > 33.8 µM | > 100 µM | > 100 µM | > 29.8 µM | > 100 µM | > 31 µM | > 77.3 µM | > 100 µM | – | – | – | – | – | – | – | – | – | –
O=C(O)c1cccc(F)c1C(=O)c1ccc2ccccc2c1 | > 100 µM | > 100 µM | > 100 µM | > 100 µM | > 100 µM | > 100 µM | > 100 µM | > 100 µM | > 100 µM | > 100 µM | – | – | – | – | – | – | – | – | – | –
C=CCOc1ccc2c(c1)CC[C@@H]1[C@@H]2CC[C@]2(C)C(=O)/C(=N/O)C[C@@H]12 | 11.2 µM | 27.8 µM | 9.35 µM | > 52 µM | > 68.2 µM | 11.8 µM | 25.4 µM | 17.4 µM | 11.4 µM | 19.2 µM | 3.27 µM | 5.95 | 2.74 µM | 6.92 µM | 14.6 µM | 1.98 µM | 4.77 | 5.59 | 1.93 | 2.71
CCCCCCOc1ccc(/C=N/Nc2cc(C)nc3ccc(Br)cc23)cc1 | 3.5 µM | 3.08 µM | 4.06 µM | 3.84 µM | 3.2 µM | 2.95 µM | 3.18 µM | 3.32 µM | 4.49 µM | 3.91 µM | 1.8 µM | 1.67 | 1.86 µM | 1.9 µM | 1.72 µM | 1.55 µM | 1.71 | 1.7 | 2.16 | 1.91
COc1ccc(-c2nn(C(=O)c3cc(OC)c(OC)c(OC)c3)c3cc(N)ccc23)cc1 | 1.83 µM | 19.5 µM | 1.84 µM | 2.28 µM | 1.75 µM | 3.98 µM | 3.63 µM | 1.12 µM | 39 µM | 9.56 µM | < 0.01 µM | < 0.0118 | < 0.018 µM | < 0.01 µM | < 0.01 µM | < 0.01 µM | < 0.0191 | < 0.01 | < 0.0179 | < 0.0175
NC(CSC(c1ccccc1)(c1ccccc1)c1ccc(Br)cc1)C(=O)O (stereo not drawn) | 12.7 µM | 0.146 µM | 22.6 µM | 4.54 µM | > 100 µM | > 35.6 µM | 1.58 µM | 22.3 µM | 0.219 µM | > 57 µM | 0.212 µM | 0.0318 | 0.093 µM | 0.976 µM | 0.0764 µM | 0.103 µM | 0.119 | 0.12 | 0.0621 | 0.971
N[C@@H](Cc1ccc(N(CCCl)CCCl)cc1)C(=O)O | > 100 µM and > 83.7 µM and 168 µM | > 100 µM and 84.2 µM | 75.4 µM and > 85 µM and 183 µM | > 100 µM and 146 µM | 49.2 µM and 72.1 µM and 128 µM | 47.1 µM and 32.9 µM and 69.9 µM | 48 µM and 72.6 µM | 29.5 µM and 66.8 µM | > 100 µM and 165 µM | > 100 µM and 100 µM | 83.9 µM and 42.7 µM | 17.3 | 19.3 µM and 22.7 µM | 30.6 µM and 32 µM | 3.95 µM and 16 µM | 16.9 µM and 15.9 µM | 13.3 | 14.4 | – | 27.8
COc1ccc(/C=C2\CCC(CN(C)C)C2=O)cc1 (stereo not drawn) | 22.1 µM | 7.02 µM | 3.97 µM | 5.07 µM | 32.1 µM | 13.6 µM | 3.17 µM | 2.84 µM | > 100 µM | 9.27 µM | – | – | – | – | – | – | – | – | – | –
Nc1c2c(c(O)c3c1=C(CO)C=N3)=NCCS2=O (stereo not drawn) | 10.6 µM | 3.09 µM | 13.5 µM | 8.99 µM | 4.12 µM | 17.5 µM | 4.52 µM | 3.3 µM | 7.9 µM | 3.1 µM | 1.7 µM | 1.59 | 3.29 µM | 2.51 µM | 2.12 µM | 3.84 µM | 1.98 | 1.37 | 2.78 | 1.69
CCCCCCCCCCCC(=O)[O][Sn]([CH2]CCC)([CH2]CCC)[CH2]CCC | 0.117 µM | 0.142 µM | 0.098 µM | 0.236 µM | 0.177 µM | 0.117 µM | 0.132 µM | 0.116 µM | 0.296 µM | 0.184 µM | 0.0357 µM | 0.0548 | 0.0228 µM | 0.0703 µM | 0.0679 µM | 0.0483 µM | 0.0539 | 0.0409 | 0.0549 | 0.0623
O=C1/C=C/[C@@H](O)[C@@H]2C[C@@H](O)C[C@H]2/C=C/CCCCO1 | 0.553 µM | > 100 µM | 0.889 µM | > 54.1 µM | > 100 µM | – | 0.615 µM | 5.63 µM | > 100 µM | > 100 µM | 0.225 µM | 0.336 | 0.248 µM | 0.475 µM | 0.774 µM | 0.424 µM | 0.25 | 1.77 | 0.282 | 0.607
CN(Cc1cccc(Cl)c1)c1ccc(CO)c(Cl)c1 | 43.3 µM | 49.3 µM | 55 µM | 44.1 µM | 32.1 µM | 23.4 µM | 27.2 µM | 41.4 µM | > 64.5 µM | 34.5 µM | 18.7 µM | 17.5 | 12.2 µM | 14.6 µM | 3.7 µM | 8.55 µM | 12.4 | 17.2 | 19.7 | 14.6
